The source of these data is patent US20230414839A1, “COATED MEDICAL PRODUCT” (HEMOTEQ AG, priority 2020, published 2023).

Molecules are shown by their SMILES.

A short description of series [1]: preparation and stability of crystal suspensions of microcrystalline rapamycin / everolimus in solutions of different tri-O-acylglycerols (Examples 2, 3). Conditions: ethyl acetate/heptane solution; standing and temperature elevation.
Description: In the first step, solutions of tri-O-acylglycerols were first prepared in a solvent mixture. Subsequently, the solutions were combined with microcrystals of rapamycin and everolimus to investigate which tri-O-acylglycerols could be used to obtain stable crystal suspensions. The composition of the solvents and solvent mixture varied depending on the active agent used. The solutions and solvent mixtures prepared in the example apply to rapamycin (SIR) and everolimus (EVR). For the preparation of the solutions, an ethyl acetate/heptane solvent mixture was used here as an example.
To prepare the solutions, 770 mg of the respective tri-O-acylglycerol and optionally 150 mg BHT were dissolved in 14 g ethyl acetate (15.6 mL). Then, 57.4 g of n-heptane (84.4 mL) was added. Subsequently, homogenization and filtration were performed. The total volume of the solvent mixture is 100 mL.
To a precisely weighed amount of dry microcrystals of the previously prepared limus active agent, a defined amount of the solutions containing tri-O-acylglycerol and optionally antioxidant is carefully added. It was investigated whether the microcrystals of the limus active agent are not soluble in the solutions and whether suspensions are formed.
To check whether crystal suspension can be prepared, to each 200 mg of rapamycin in the form of microcrystals or 200 mg of everolimus in the form of microcrystals were carefully added 10 mL of one of the solutions 1a) to 1t) at room temperature. Three mixtures of 10 mL of solution for each solution were prepared. After combining, it was tested whether the microcrystals of limus active agents dissolved directly in the solutions. For solutions where there was no immediate dissolution of the microcrystals of the limus active agents, the suspensions of the solutions without antioxidant were allowed to stand for a period of 100 h and tested again to see if the microcrystals of the limus active agents dissolved.
Three mixtures of 10 mL of solution for each solution were prepared. After combining, it was tested whether the microcrystals of limus active agents dissolved directly in these solutions. For solutions where there was no immediate dissolution of the microcrystals of the limus active agents, the suspensions of the solutions without antioxidant were allowed to stand for a period of 100 hours and tested again to see if the microcrystals of the limus active agents dissolved.
The conditions of series [2]: cited from earlier work.
For series [3] the following is noted: polar organic solvents, rounded values (Table 6); cited from earlier work.

As to `CCCCCCCCCC(=O)OCC(COC(=O)CCCCCCCCC)OC(=O)CCCCCCCCC` [Tridecanoylglycerol, tridecanoylglycerol], the “stability of the crystal suspension of microcrystalline everolimus and rapamycin with the tri-O-acylglycerol” value (“stability” for short) in series [1] was “remained stable even after 100 h and under temperature elevation”.

In the case of `CCCCCCCC(=O)OCC(COC(=O)CCCCCCC)OC(=O)CCCCCCC` [Trioctanoylglycerol, trioctanoylglycerol], the solubility in water entry in series [2] was “practically insoluble in water”. In addition, in series [1], the “stability” value was “remained stable even after 100 h and under temperature elevation”.

Consider `CCCCCCCCC(=O)OCC(COC(=O)CCCCCCCC)OC(=O)CCCCCCCC` [Trinonanoylglycerol, trinonanoylglycerol], for which, in series [2], the solubility in water entry was “practically insoluble in water”. In series [1], the “stability” value was “remained stable after 24-48 hours and under temperature elevation”.

As to `CCCCCCCCCCC(=O)OCC(COC(=O)CCCCCCCCCC)OC(=O)CCCCCCCCCC` [Triundecanoylglycerol, 1,3-bis(undecanoyloxy)propan-2-yl-undecanoate], the solubility in water result in series [2] is “practically insoluble in water”. In series [1], the “stability” value is “remained stable after 24-48 hours and under temperature elevation”.

Take `CN1CCCC1=O` [N-methylpyrrolidone]: the logKOW in series [3] is −0.5.
